Assay results taken from patent US20240041042A1, “1-(PYRIDYL)-5-AZINYLPYRAZOLE DERIVATIVES, AND THEIR USE FOR CONTROL OF UNDESIRED PLANT GROWTH” (Bayer Aktiengesellschaft, priority 2020, published 2024).
Like-named read-outs stand apart in the source and are kept apart here.

What was measured:
Format in all cases: in vivo
[1] = test system: Verconica persica (VERPE); experiment: Pre-emergence herbicidal action against VERPE; settings: dosage 320 g/ha
Summary of the method: (§1)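 Greenhouse pot trial: seeds sown, soil-covered, sprayed before emergence with compound in water (0.5% additive; 600 l/ha; ≤320 g/ha). Scoring visual, ~3 weeks, 0–100% scale vs untreated.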

Lolium rigidum (LOLRI) [2] = experiment: Pre-emergence herbicidal action against LOLRI; settings: dosage 320 g/ha
Summary of the method: as §1

Lolium rigidum (LOLRI) [3] = experiment: Post-emergence herbicidal action against LOLRI
Summary of the method: (§2)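 Post-emergence greenhouse spray, one-leaf stage, 600 l/ha water plus 0.5% additive; WP or EC formulations; application rates 320 g/ha or lower. Visual % damage vs untreated controls at ~3 weeks.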

[4] = test system: Pharbitis purpurea (PHBPU); experiment: Post-emergence herbicidal action against PHBPU
Summary of the method: as §2

[5] = test system: Amaranthus retroflexus (AMARE); experiment: Pre-emergence herbicidal action against AMARE; settings: visual scoring after about 3 weeks vs untreated controls
Summary of the method: as §1

[6] = test system: Alopecurus myosuroides (ALOMY); experiment: Post-emergence herbicidal action against ALOMY; settings: visual rating about 3 weeks after treatment vs untreated controls (100% = plants have died, 0% = like control plants)
Summary of the method: as §2

Viola tricolor (VIOTR) [7] = experiment: Post-emergence herbicidal action against VIOTR
Summary of the method: as §2

[8] = test system: Polygonum convolvulus (POLCO); experiment: Pre-emergence herbicidal action against POLCO
Summary of the method: as §1

Zea mays (ZEAMX) [9] = settings: pre-emergence, 80 g/ha, crop plant compatibility, in comparison to untreated controls
Summary of the method: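 Scoring: visual, % of untreated control, about 3 weeks after a pre-emergence application to the soil surface. Application used WP or EC formulations diluted in water with 0.5% additive at 600 l/ha; dosage levels are marked by suffixes a, b and c.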

[10] = test system: Digitaria sanguinalis (DIGSA); experiment: Post-emergence herbicidal action against DIGSA; settings: visual rating about 3 weeks after treatment
Summary of the method: as §2

Avena fatua (AVEFA) [11] = experiment: Pre-emergence herbicidal action against AVEFA; settings: visual scoring after about 3 weeks vs untreated controls
Summary of the method: as §1

Setaria viridis (SETVI) [12] = experiment: Post-emergence herbicidal action against SETVI
Summary of the method: as §2

[13] = test system: Matricaria inodora (MATIN); experiment: Pre-emergence herbicidal action against MATIN; settings: dosage 320 g/ha
Summary of the method: as §1

[14] = test system: Echinochloa crus-galli (ECHCG); experiment: Pre-emergence herbicidal action against ECHCG; settings: dosage 320 g/ha
Summary of the method: as §1

Oryza sativa (ORYSA) = settings: crop plant compatibility
Summary of the method: (§3)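 Foliar application at the one-leaf stage: WP/EC formulation, 0.5% additive, 600 l/ha water. Greenhouse-grown in sandy loam. Endpoint is visual % injury relative to untreated controls at about 3 weeks.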

[15] = test system: Digitaria sanguinalis (DIGSA); experiment: Pre-emergence herbicidal action against DIGSA
Summary of the method: as §1

[16] = test system: Polygonum convolvulus (POLCO); experiment: Post-emergence herbicidal action against POLCO
Summary of the method: as §2

[17] = test system: Verconica persica (VERPE); experiment: Post-emergence herbicidal action against VERPE
Summary of the method: as §2

Setaria viridis (SETVI) [18] = experiment: Pre-emergence herbicidal action against SETVI
Summary of the method: as §1

[19] = test system: Pharbitis purpurea (PHBPU); experiment: Pre-emergence herbicidal action against PHBPU; settings: dosage 320 g/ha
Summary of the method: as §1

[20] = test system: Amaranthus retroflexus (AMARE); experiment: Post-emergence herbicidal action against AMARE
Summary of the method: as §2

[21] = test system: Alopecurus myosuroides (ALOMY); experiment: Pre-emergence herbicidal action against ALOMY; settings: scored visually after about 3 weeks, 100% = plants have died
Summary of the method: as §1

[22] = test system: Echinochloa crus-galli (ECHCG); experiment: Post-emergence herbicidal action against ECHCG
Summary of the method: as §2

Avena fatua (AVEFA) [23] = experiment: Post-emergence herbicidal action against AVEFA; settings: 80 g/ha, visual rating about 3 weeks after treatment
Summary of the method: as §2

Zea mays (ZEAMX) [24] = settings: 20 g/ha, ZEAMX, effect in comparison to untreated controls
Summary of the method: as §3

Viola tricolor (VIOTR) [25] = experiment: Pre-emergence herbicidal action against VIOTR
Summary of the method: as §1

[26] = test system: Abutilon theophrasti (ABUTH); experiment: Post-emergence herbicidal action against ABUTH; settings: 80 g/ha, visual rating about 3 weeks after treatment vs untreated controls (100% = plants have died, 0% = like control plants)
Summary of the method: as §2

[27] = 80 g/ha, effect in comparison to untreated controls
[28] = 80 g/ha, visual scoring after about 3 weeks vs untreated controls
[29] = 80 g/ha, visual rating about 3 weeks after treatment vs untreated controls (100% = plants have died, 0% = like control plants)

| Pre-emergence action against ZEAMX in % (Zea mays (ZEAMX) [9]) | Post-emergence action against ORYSA in % (Oryza sativa (ORYSA); [27]) | Structure (SMILES) | Pre-emergence action against VERPE in % [1] | Pre-emergence action against LOLRI in % (Lolium rigidum (LOLRI) [2]) | Post-emergence action against PHBPU in % ([4]; dosage 80 g/ha) | Pre-emergence action against AMARE in % ([5]; 80 g/ha) | Pre-emergence action against AMARE in % ([5]; 320 g/ha) | Post-emergence action against VIOTR in % (Viola tricolor (VIOTR) [7]; 80 g/ha) | Pre-emergence action against POLCO in % ([8]; dosage 320 g/ha) | Post-emergence action against DIGSA in % ([10]; 80 g/ha) | Pre-emergence action against AVEFA in % (Avena fatua (AVEFA) [11]; 320 g/ha) | Pre-emergence action against MATIN in % [13] | Pre-emergence action against ECHCG in % [14] | Pre-emergence action against DIGSA in % [15, 28] | Pre-emergence action against DIGSA in % ([15]; dosage 320 g/ha) | Post-emergence action against POLCO in % ([16]; dosage 80 g/ha) | Pre-emergence action against SETVI in % (Setaria viridis (SETVI) [18]; dosage 320 g/ha) | Pre-emergence action against PHBPU in % [19] | Post-emergence action against AMARE in % [20, 29] | Pre-emergence action against ALOMY ([21]; 80 g/ha) | other results |
| --- | --- | --- | --- | --- | --- | --- | --- | --- | --- | --- | --- | --- | --- | --- | --- | --- | --- | --- | --- | --- | --- |
| 20% | 10% | COC(=O)CCOC(=O)COc1nn(-c2ccccn2)c(-c2ccc(F)nc2)c1Br [Example I-247] | 90% | 100% | 90% | 80% | 100% | 80% | 90% | 80% | 80% | 90% | 100% | 100% | 100% | 80% | 100% | 80% | 80% | 80% | Post-emergence action against LOLRI in % (Lolium rigidum (LOLRI) [3]; dosage 320 g/ha): 80%; Post-emergence action against PHBPU in % ([4]; dosage 320 g/ha): 90%; Post-emergence action against ALOMY in % ([6]; 320 g/ha): 80%; Post-emergence action against VIOTR in % (Viola tricolor (VIOTR) [7]; 320 g/ha): 80%; Post-emergence action against DIGSA in % ([10]; 320 g/ha): 80%; Post-emergence action against SETVI in % (Setaria viridis (SETVI) [12]; dosage 320 g/ha): 80%; Post-emergence action against POLCO in % ([16]; dosage 320 g/ha): 80%; Post-emergence action against VERPE in % ([17]; 320 g/ha, VERPE): 80%; Post-emergence action against VERPE in % ([17]; dosage 80 g/ha): 80%; Post-emergence action against AMARE in % ([20]; 320 g/ha, visual rating about 3 weeks after treatment): 80%; Pre-emergence action against ALOMY ([21]; 320 g/ha): 100%; Post-emergence action against ECHCG in % ([22]; dosage 80 g/ha): 80%; Post-emergence action against ECHCG in % ([22]; dosage 320 g/ha): 80% |
| 0% | 0% | COC(=O)[C@@H](C)Oc1nn(-c2ccccn2)c(-c2ccnc(F)c2)c1Cl [Example I-19] | 100% | 100% | 90% | 100% | 100% | 90% | 100% | 80% | 100% | 90% | 100% | 100% | 100% | 90% | 100% | 90% | 80% | 100% | Post-emergence action against LOLRI in % (Lolium rigidum (LOLRI) [3]; dosage 80 g/ha): 80%; Post-emergence action against AVEFA in % (Avena fatua (AVEFA) [23]): 90%; Post-emergence action against ALOMY in % ([6]; 80 g/ha): 100%; Pre-emergence action against POLCO in % ([8]; dosage 80 g/ha): 90%; Pre-emergence action against AVEFA in % (Avena fatua (AVEFA) [11]; 80 g/ha): 80%; Post-emergence action against SETVI in % (Setaria viridis (SETVI) [12]; dosage 80 g/ha): 80%; Post-emergence action against ZEAMX in % (crop plant compatibility) (Zea mays (ZEAMX) [24]): 0%; Post-emergence action against ORYSA in % (Oryza sativa (ORYSA); 20 g/ha, effect vs untreated controls): 0%; Pre-emergence action against SETVI in % (Setaria viridis (SETVI) [18]; dosage 80 g/ha): 100%; Pre-emergence action against VIOTR in % (Viola tricolor (VIOTR) [25]; 320 g/ha, Viola tricolor): 100%; Pre-emergence action against VIOTR in % (Viola tricolor (VIOTR) [25]; dosage 80 g/ha): 100%; Pre-emergence action against ALOMY ([21]; 320 g/ha): 100%; Post-emergence action against ABUTH in % [26]: 80% |
